Data published in patent US7579448B2, “Purification of microbial cell fermentation homogenates” (Genentech, Inc., priority 2003, dated 2009).

Assays:
[1] = Ethacridine lactate solubility at increasing NaCl concentrations; assay type: physicochemical
Method: The samples were incubated for three hours at room temperature before the concentration of soluble ethacridine lactate was determined. The open keys symbolize the 1.2% ethacridine lactate solution and the closed keys the 0.6% solution. The solid line is the 0.6% ethacridine lactate solution at pH 6.0, the broken line is the 1.2% ethacridine lactate solution at pH 6, the dotted line is the 0.6% ethacridine lactate solution at pH 9, and the broken line with dots is the 1.2% ethacridine lactate solution at pH 9.
Two ethacridine lactate solutions, i.e., 0.6 and 1.2%, were studied. Each solution was divided into two aliquots and pH adjusted to 6.0 and 9.0, respectively. To obtain a slight buffer capacity in the system, the ethacridine lactate was dissolved in 10 mM Tris-HCl buffer. Each ethacridine lactate solution was exposed to increasing amounts of NaCl, i.e., 0, 50, 100, 150, 200, 300, and 600 mM. The samples were incubated for 3 hours, then centrifuged for 20 minutes at 12000 g in a microfuge (SORVALL MC12V™, DuPont, Wilmington, Del., USA). The supernatants were assayed for ethacridine lactate by measuring the absorption at 270 nm. The spectrophotometer used was a HP8453 UV-VIS™ from Hewlett Packard (Wilmington, Del.), now Aligent Technologies (Palo Alto, Calif.) and known as the AGILENT 8453 UV-VIS™ spectrophotometer. A standard curve was derived from a solution with known ethacridine lactate concentration.

[2] = Conductivity study: NaCl added to anti-CD18 homogenate with 0.6% ethacridine lactate; assay type: physicochemical; details: 100 mM NaCl, anti-CD18 homogenate diluted 4-fold
Method: Various concentrations of NaCl were added to anti-CD18 homogenate to evaluate the effect of conductivity on protein precipitation. The NaCl concentrations studied were 0, 50, 100, 150, 200, and 400 mM. A reference series without ethacridine lactate was also performed to determine if any protein was precipitated due to the high salt concentration. The pH in this salt spike study was 8.5 and the anti-CD18 homogenate was diluted 4-fold. The ethacridine lactate concentration in the samples was 0.6% and 0% for the reference experiments.

## CC(O)C(=O)O.CCOc1ccc2nc3cc(N)ccc3c(N)c2c1 [ethacridine lactate, 6,9-diamino-2-ethoxyacridine lactate]
[1]; pH 6, 0.6 and 1.2% solutions, 50 mM NaCl, 3 hours at room temperature
  solubility of ethacridine lactate: soluble
[1]; pH 6, 0.6 and 1.2% solutions, 100 mM NaCl, 3 hours at room temperature
  solubility of ethacridine lactate: nearly fully precipitated
[1]; pH 9, 0.6% solution compared with 1.2% solution, increasing NaCl
  solubility of ethacridine lactate: precipitated at lower salt concentration than the more concentrated ethacridine lactate solution
[2]
  precipitation of ethacridine lactate in the extraction system: precipitation of ethacridine lactate was observed
